Measurements from publication PMC4718940, “Preclinical studies of 5-fluoro-2′-deoxycytidine and tetrahydrouridine in pediatric brain tumors” (Journal of Neuro-Oncology, 2015).
pEC50: −log10 of the molar value. Where two headings read alike, the source gives them in different places.

What was measured:
Format in all cases: cell-based
[1] = tested on: Mouse G3 MB Myc1 neurospheres; test: 72 h dose response, CellTiter-Glo, mouse G3 MB neurospheres; settings: 72 hr treatment, 384-well; for pEC50: read-out: G3-MB EC50
Description: (§1) In the Discovery Phase, the initial studies included the screen of a library of 9 compounds against epigenetic regulators at a single concentration and a dose-response on G3 MB, EP, and CPC tumor cells, as well as HEPG2 and BJ (Fig. 1). The library and dose response studies are described in the Supplementary Material.
(§2) Briefly, cells (see Supplementary Table S2 for cell identity) were plated in 384-well plates (Corning) in 30 µL of supplemented neurobasal medium by using an automated plate filler (Wellmate, Matrix). After 24 hr, 28 nL of compound was transferred via pin tool, resulting in a final drug concentration of approximately 4 nM to 10 µM. After 72 hr of treatment, CellTiter-Glo reagent (Promega) was added, and the luminescence signal was measured using an automated Envision plate reader (Perkin-Elmer). Luminescence data were normalized by log10-transformation prior to calculating the percentage of inhibition using the following equation: 100 × (negative control mean − compound value)/(negative control mean − positive control mean). Our negative control represents cells treated with 0.1% DMSO with 0% inhibition. Cells treated with 35 µM cycloheximide (G3 MB tumor spheres) or 10 µM panobinostat (EP and CPC cells) were used as positive controls with 100% inhibition. The response of cells to the compounds were normalized to that of the positive controls present in each plate screened, shown in the Y axis of the dose-response curve. […] Unless otherwise reported, the y-axis for each dose response curve in the figures was independently normalized to the range from 0 to 1 and therefore reported as ‘relative growth inhibition’. High through put assay data were analyzed by using our in-house Robust Interpretation of Screening Experiments (RISE) application that was written in Pipeline Pilot (Accelrys, v. 8.5) and R (R Development Core Team).

mouse EP neurospheres = test: 72 h dose response, CellTiter-Glo, mouse EP neurospheres; settings: 72 hr treatment, 384-well; for pEC50: read-out: EP EC50
Description: as §1, §2

[2] = tested on: mouse CPC neurospheres (CPC300); test: 72 h dose response, CellTiter-Glo, mouse CPC neurospheres; settings: 72 hr treatment, 384-well; for pEC50: read-out: CPC300 EC50
Description: as §1, §2

| Structure (SMILES) | G3-MB EC50 [1] | pEC50 [1] | pEC50 (mouse EP neurospheres) | pEC50 [2] | pEC50 (mouse EP neurospheres; Mus musculus) | pEC50 ([2]; Mus musculus) | also measured |
| --- | --- | --- | --- | --- | --- | --- | --- |
| O=c1ncccn1[C@@H]1O[C@H](CO)[C@@H](O)[C@H]1O [Zebularin, Zebularine] | Inactive |  |  |  |  |  | EP EC50 (mouse EP neurospheres): Inactive; CPC300 EC50 [2]: Inactive |
| CC(/C=C/C(=O)NO)=C\[C@@H](C)C(=O)c1ccc(N(C)C)cc1 [Trichostatin A] |  | 7.00 | 6.40 | 5.68 |  |  |  |
| Cc1sc2c(c1C)C(c1ccc(Cl)cc1)=N[C@@H](CC(=O)OC(C)(C)C)c1nnc(C)n1-2 [JQ1] |  | 6.15 | 5.77 | < 5.25 |  |  |  |
| O=C(CCCCCCC(=O)Nc1ccccc1)NO [SAHA (Vorinostat), Vorinostat] | Inactive |  |  |  |  |  |  |
| Nc1nccc2c1ncn2C1C=C(CO)C(O)C1O (stereo not shown) [3-Deazaneplanocin A] |  |  |  |  | 6.96 | 6.51 | pEC50 ([1]; Mus musculus): 6.44 |
| Nc1ncn([C@H]2C[C@H](O)[C@@H](CO)O2)c(=O)n1 [Decitabine] |  |  |  |  | 6.30 | 5.17 | pEC50 ([1]; Mus musculus): 6.02 |
| CCNC(=O)C[C@@H]1N=C(c2ccc(Cl)cc2)c2cc(OC)ccc2-n2c(C)nnc21 [I-BET] |  | 6.05 | 5.39 | < 5.26 |  |  |  |
| Nc1ncn([C@@H]2O[C@H](CO)[C@@H](O)[C@H]2O)c(=O)n1 [5-Azacytidine] | Inactive |  |  |  | 5.28 | 5.97 |  |
